# Results published in BindingDB's records for doi:10.1002/cbic.200800712 (University of Basel, 2009).
# Where “and” joins values, the source holds several entries; their conditions need not be identical. Identical values can stand only once.
# Key:
# [1] = target: T1, Cytochrome P450 2A13 (Homo sapiens, UniProt Q16696); assay: Inhibition Assay; conditions: pH 7.6; 37 °C
# T1 sequence (Q16696 whole entry): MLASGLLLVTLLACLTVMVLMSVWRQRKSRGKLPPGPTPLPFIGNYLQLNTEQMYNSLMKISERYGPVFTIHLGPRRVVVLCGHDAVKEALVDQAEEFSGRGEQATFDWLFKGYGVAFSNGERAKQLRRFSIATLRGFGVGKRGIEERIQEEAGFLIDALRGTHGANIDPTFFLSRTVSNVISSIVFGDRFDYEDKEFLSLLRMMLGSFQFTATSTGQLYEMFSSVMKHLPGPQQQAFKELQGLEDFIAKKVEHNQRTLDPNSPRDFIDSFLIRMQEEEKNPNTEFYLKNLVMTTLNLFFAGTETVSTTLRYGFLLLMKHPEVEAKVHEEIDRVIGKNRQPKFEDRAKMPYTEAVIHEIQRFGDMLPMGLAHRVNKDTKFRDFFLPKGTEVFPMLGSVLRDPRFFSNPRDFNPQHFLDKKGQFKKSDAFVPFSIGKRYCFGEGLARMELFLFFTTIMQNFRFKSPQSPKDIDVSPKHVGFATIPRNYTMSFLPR
# From the text: (§1) Inhibition assay using cytochrome P450 enzyme CYP2A6 and CYP2A13.
# [2] = target: T2, Cytochrome P450 2A6 (Homo sapiens, UniProt P11509); assay: Inhibition Assay; conditions: pH 7.6; 37 °C
# T2 sequence (P11509 whole entry): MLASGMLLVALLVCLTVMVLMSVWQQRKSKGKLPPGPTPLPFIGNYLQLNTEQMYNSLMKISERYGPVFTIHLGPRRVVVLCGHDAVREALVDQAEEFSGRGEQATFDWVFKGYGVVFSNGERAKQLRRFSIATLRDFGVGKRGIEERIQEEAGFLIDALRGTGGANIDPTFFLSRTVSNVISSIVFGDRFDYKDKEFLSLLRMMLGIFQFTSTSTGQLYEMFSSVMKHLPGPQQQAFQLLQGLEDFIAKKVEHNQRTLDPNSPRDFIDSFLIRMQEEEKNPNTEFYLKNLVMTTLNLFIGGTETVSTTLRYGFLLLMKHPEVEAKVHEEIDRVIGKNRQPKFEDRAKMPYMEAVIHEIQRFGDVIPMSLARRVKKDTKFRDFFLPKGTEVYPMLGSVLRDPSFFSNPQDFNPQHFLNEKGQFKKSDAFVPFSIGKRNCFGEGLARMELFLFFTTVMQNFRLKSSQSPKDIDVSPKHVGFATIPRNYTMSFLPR
# From the text: as §1
Structure (SMILES),IC50 [1] [µM],IC50 [2]
"CCOC(=O)CCCn1ccnc1 [1-Subsituted 1H-imidazole, 18]",123,> 300 µM
"CC(C)=CCC/C(C)=C\Cn1ccnc1 [1-Subsituted 1H-imidazole, 14]",5.7,5.7 µM
O=C(O)CCCCn1ccnc1,82,178 µM
"CC/C=C/CCn1ccnc1 [1-Subsituted 1H-imidazole, 12]",5.5,7.1 µM and 11.5 µM
"C=CCCCCn1ccnc1 [1-Subsituted 1H-imidazole, 13]",2.4,1.4 µM
"CCCn1ccnc1 [1-Subsituted 1H-imidazole, 1]",> 300,> 300 µM
"CCCCCCCn1ccnc1 [1-Subsituted 1H-imidazole, 5]",3.1,11 µM
"CC#CCn1ccnc1 [1-Subsituted 1H-imidazole, 15]",235,64 µM
"CCCCn1ccnc1 [1-Subsituted 1H-imidazole, 2]",44,8.6 µM
c1cn(CC2CC2)cn1,148,54 µM
"CC(C)=CCn1ccnc1 [1-Subsituted 1H-imidazole, 9]",–,7.7 µM
"CCCCCCn1ccnc1 [1-Subsituted 1H-imidazole, 4]",–,2.7 µM
"CCCCCn1ccnc1 [1-Subsituted 1H-imidazole, 3]",4.3,2.1 µM
"CCOC(=O)CCn1ccnc1 [1-Subsituted 1H-imidazole, 17]",238,> 300 µM
"CC/C=C/Cn1ccnc1 [1-Subsituted 1H-imidazole, 10]",11.4,6.7 µM
"CC(C)CCn1ccnc1 [1-Subsituted 1H-imidazole, 7]",–,3.1 µM

# Second part, the compound after the results:
IC50 [1] [µM],IC50 [2],Structure (SMILES)
> 300,> 300 µM,C=Cn1ccnc1 [1-ethenyl-1H-imidazole]
> 300,122 µM,"OCCCCCn1ccnc1 [1-Subsituted 1H-imidazole, 20]"
143,> 300 µM,"CC/C=C/Cc1ncc[nH]1 [2-Subsituted 1H-imidazole, 28]"
277,> 300 µM,"CCCCCCCCCc1ncc[nH]1 [2-Subsituted 1H-imidazole, 27]"
> 300,> 300 µM,"COc1ccc(C2=NCCO2)cc1 [2-Subsituted oxazoline, 31]"
> 300,> 300 µM,"OCCCCn1ccnc1 [1-Subsituted 1H-imidazole, 19]"
19.1,22.4 µM,"N#CCCCCn1ccnc1 [1-Subsituted 1H-imidazole, 22]"
> 300,> 300 µM,"CCCCCCCCCc1ncco1 [2-Subsituted oxazole, 30]"
49,302 µM,"COc1ccc(-c2ncco2)cc1 [2-Subsituted oxazole, 29]"
247,> 300 µM,"CC(C)=CCCC(C)Cc1ncc[nH]1 (centres undefined) [2-Subsituted 1H-imidazole, 26]"
